Data from publication PMC6009968, “Through scaffold modification to 3,5-diaryl-4,5-dihydroisoxazoles: new potent and selective inhibitors of monoamine oxidase B” (Journal of Enzyme Inhibition and Medicinal Chemistry, 2017).
Where two headings read alike, the source gives them in different places. Marks after values point to notes of the source that are not given here.

How the values were obtained:
hMAO-B = target: T1, hMAO-B (Homo sapiens, UniProt P27338); test: Inhibition of human recombinant MAO B (Amplex Red assay); conditions: for Ratio, selectivity ratios [IC50(MAO-A)]/[IC50(MAO-B)]: bounds assume IC50 against MAO-A is the highest concentration tested (100 μM); for Ratio: assumes the inactive isoform IC50 is the highest concentration tested (100 μM)
T1 sequence (P27338 1-520): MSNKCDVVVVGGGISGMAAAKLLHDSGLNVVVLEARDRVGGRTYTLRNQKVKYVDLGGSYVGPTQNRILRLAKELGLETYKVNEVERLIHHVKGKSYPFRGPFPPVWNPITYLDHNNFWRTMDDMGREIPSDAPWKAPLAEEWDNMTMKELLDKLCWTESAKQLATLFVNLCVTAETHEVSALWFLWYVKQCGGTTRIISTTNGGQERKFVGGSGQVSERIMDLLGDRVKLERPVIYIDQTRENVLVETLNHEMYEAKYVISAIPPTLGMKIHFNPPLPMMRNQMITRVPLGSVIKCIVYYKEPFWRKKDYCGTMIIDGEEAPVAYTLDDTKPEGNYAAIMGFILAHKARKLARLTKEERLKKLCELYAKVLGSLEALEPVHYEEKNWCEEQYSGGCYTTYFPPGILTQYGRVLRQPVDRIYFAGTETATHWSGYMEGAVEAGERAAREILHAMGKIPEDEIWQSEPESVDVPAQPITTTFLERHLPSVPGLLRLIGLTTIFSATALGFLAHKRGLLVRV

hMAO-A = target: T2, hMAO-A (Homo sapiens, UniProt P21397); test: Inhibition of human recombinant MAO A (Amplex Red assay)
T2 sequence (P21397 1-527): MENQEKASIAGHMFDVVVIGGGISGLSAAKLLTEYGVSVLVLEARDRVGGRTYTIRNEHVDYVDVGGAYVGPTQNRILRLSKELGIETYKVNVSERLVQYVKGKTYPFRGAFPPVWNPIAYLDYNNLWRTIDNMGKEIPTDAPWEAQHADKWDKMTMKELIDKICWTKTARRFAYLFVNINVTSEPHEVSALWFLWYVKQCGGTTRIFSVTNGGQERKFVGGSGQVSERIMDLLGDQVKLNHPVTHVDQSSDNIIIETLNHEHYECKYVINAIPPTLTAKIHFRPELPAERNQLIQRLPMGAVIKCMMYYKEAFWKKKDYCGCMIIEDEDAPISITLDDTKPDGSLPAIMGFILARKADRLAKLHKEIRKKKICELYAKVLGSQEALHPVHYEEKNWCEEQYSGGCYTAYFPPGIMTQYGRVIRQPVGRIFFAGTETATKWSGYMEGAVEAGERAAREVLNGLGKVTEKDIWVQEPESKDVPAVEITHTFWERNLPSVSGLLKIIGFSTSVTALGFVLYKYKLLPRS

[1] = read-out: MAO-B (IC50), Table 3, mean ± SEM from five experiments
[2] = read-out: MAO-A (IC50), Table 3, highest concentration tested
[3] = read-out: MAO-B (IC50), Table 4, single enantiomers, mean ± SEM from five experiments
[4] = read-out: MAO-A (IC50), Table 4, single enantiomers

SMILES | Ratio, selectivity ratios [IC50(MAO-A)]/[IC50(MAO-B)] (hMAO-B; Table 3) | Ratio (hMAO-B; Table 4, single enantiomers) | IC50 (hMAO-A; [4]) [nM] | also measured
COc1ccc(C2CC(c3ccc(C)cc3)=NO2)cc1 (racemic) [EMAC II m] | >222^d | – | – | IC50 (hMAO-B; [1]): 450 ± 18 nM; IC50 (hMAO-A; [2]): > 100000 nM
Cc1ccc(C2=NOC(c3ccc(Cl)cc3)C2)cc1 (centres unmarked) [EMAC II i] | >961^d | – | – | IC50 (hMAO-B): 104 ± 3.69 nM; IC50 (hMAO-A): > 100000 nM
Cc1ccc(C2=NOC(c3ccc(C)cc3)C2)cc1 (racemic) [EMAC II j] | >2436^d | – | – | IC50 (hMAO-B; [1]): 41 ± 1.52 nM; IC50 (hMAO-A; [2]): > 100000 nM
Cc1ccc(C2=NOC(c3ccc(F)cc3)C2)cc1 (racemic) [EMAC II k] | >312^d | – | – | IC50 (hMAO-B; [1]): 320 ± 13.6 nM; IC50 (hMAO-A; [2]): > 100000 nM
Cc1ccc(C2=NOC(c3ccc(Cl)c(Cl)c3)C2)cc1 (racemic) [EMAC II l] | >8354^d | – | – | IC50 (hMAO-B; [1]): 12 ± 0.37 nM; IC50 (hMAO-A; [2]): > 100000 nM
Cc1ccc(C2=NO[C@@H](c3ccc(C)cc3)C2)cc1 [R-(−) EMAC II j] | – | 39 216^b | > 100000 | IC50 (hMAO-B; [3]): 2.55 ± 0.11 nM
Cc1ccc(C2=NO[C@@H](c3ccc(Cl)cc3)C2)cc1 [R-(−) EMAC II i] | – | 6549^b | – | IC50 (hMAO-B): 15.3 ± 0.95 nM; IC50 (hMAO-A): > 100000 nM

Continued, in another order:

Ratio, selectivity ratios [IC50(MAO-A)]/[IC50(MAO-B)] (hMAO-B; Table 3) | Ratio (hMAO-B; Table 4, single enantiomers) | IC50 (hMAO-A; [4]) [nM] | SMILES | also measured
– | 792.6^b | > 100000 | COc1ccc([C@H]2CC(c3ccc(C)cc3)=NO2)cc1 [R-(−) EMAC II m] | IC50 (hMAO-B; [3]): 126 ± 8.44 nM
– | 2956^b | > 100000 | Cc1ccc(C2=NO[C@H](c3ccc(F)cc3)C2)cc1 [S-(+) EMAC II k] | –
– | 9124 | – | Cc1ccc(C2=NO[C@H](c3ccc(Cl)c(Cl)c3)C2)cc1 [S-(+) EMAC II l] | IC50 (hMAO-A): > 100000 nM
– | 333.5^b | > 100000 | Cc1ccc(C2=NO[C@@H](c3ccc(F)cc3)C2)cc1 [R-(−) EMAC II k] | IC50 (hMAO-B; [3]): 300 ± 12 nM
– | 52 910^b | – | Cc1ccc(C2=NO[C@@H](c3ccc(Cl)c(Cl)c3)C2)cc1 [R-(−) EMAC II l] | selectivity towards MAO B, increase of the enantiomer versus the racemic mixture (hMAO-B): increased by more than six folds; IC50 (hMAO-A): > 100000 nM
– | 342.6 | > 100000 | COc1ccc([C@@H]2CC(c3ccc(C)cc3)=NO2)cc1 [S-(+) EMAC II m] | IC50 (hMAO-B; [3]): 292 ± 13.4 nM
– | – | > 100000 | Cc1ccc(C2=NO[C@H](c3ccc(Cl)cc3)C2)cc1 [S-(+) EMAC II i] | IC50 (hMAO-B; read-out: MAO-B (IC50), Table 4, single enantiomers): > 100000 nM
– | 3188^b | > 100000 | Cc1ccc(C2=NO[C@H](c3ccc(C)cc3)C2)cc1 [S-(+) EMAC II j] | –
